What all share (format): biochemical
One test deals with T1, hsEH (Homo sapiens, UniProt P34913).
T1 sequence (P34913 1-555): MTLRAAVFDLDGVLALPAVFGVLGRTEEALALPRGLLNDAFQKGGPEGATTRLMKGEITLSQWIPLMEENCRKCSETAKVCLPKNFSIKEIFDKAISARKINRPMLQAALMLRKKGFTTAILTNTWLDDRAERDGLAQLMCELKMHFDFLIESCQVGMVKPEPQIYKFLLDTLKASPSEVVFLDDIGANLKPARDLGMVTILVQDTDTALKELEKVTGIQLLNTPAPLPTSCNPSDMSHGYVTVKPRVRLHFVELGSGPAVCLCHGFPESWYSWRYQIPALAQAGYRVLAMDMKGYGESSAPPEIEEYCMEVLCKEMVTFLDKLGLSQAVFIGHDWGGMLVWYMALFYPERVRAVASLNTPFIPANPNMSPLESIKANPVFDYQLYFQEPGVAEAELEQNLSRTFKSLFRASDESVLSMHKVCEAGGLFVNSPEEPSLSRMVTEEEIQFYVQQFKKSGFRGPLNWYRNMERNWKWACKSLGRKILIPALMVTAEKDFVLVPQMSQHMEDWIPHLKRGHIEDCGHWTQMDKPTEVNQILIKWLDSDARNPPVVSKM
Nature of the test: human sEH inhibition (hsEH IC50).

For test [1], the target named is T2, hFAAH (Homo sapiens, UniProt O00519).
T2 construct: made in house
T2 sequence (O00519 1-579): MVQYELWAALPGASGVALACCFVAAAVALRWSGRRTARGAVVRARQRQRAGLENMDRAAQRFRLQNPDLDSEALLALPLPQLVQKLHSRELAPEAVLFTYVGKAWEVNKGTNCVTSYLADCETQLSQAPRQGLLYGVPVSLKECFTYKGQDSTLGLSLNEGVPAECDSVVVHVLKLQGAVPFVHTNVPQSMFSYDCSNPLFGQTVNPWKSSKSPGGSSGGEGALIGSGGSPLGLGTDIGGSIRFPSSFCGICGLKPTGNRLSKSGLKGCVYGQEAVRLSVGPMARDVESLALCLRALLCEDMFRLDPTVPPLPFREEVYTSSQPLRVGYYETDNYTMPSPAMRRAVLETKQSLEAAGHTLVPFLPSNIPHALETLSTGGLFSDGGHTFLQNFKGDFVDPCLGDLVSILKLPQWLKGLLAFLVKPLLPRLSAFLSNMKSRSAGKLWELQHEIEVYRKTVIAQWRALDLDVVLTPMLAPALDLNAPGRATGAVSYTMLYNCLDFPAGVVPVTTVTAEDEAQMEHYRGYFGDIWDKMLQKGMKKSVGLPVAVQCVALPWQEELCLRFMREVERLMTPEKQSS
Nature of the test: recombinant FAAH enzyme with fluorescent substrate OMP (hFAAH IC50, screen).

In test [2] the target is T2, hFAAH. Nature of the test: hFAAH inhibition kinetics (KD, k2).

With `O=C(Nc1ccccc1F)N1CCC(Cc2cnc3ccccc3c2)CC1` [Compound B-3, N-(2-fluorophenyl)-4-(quinolin-3-ylmethyl)piperidine-1-carboxamide], the IC50 (usually the concentration at which inhibition is half-maximal) at hsEH is 800 ± 400 nM; on hFAAH [1], 49 nM. In addition, on hFAAH [1] (relative to PF-750), the “increased potency towards FAAH” value is 2.5 fold.

Turning to `COc1ccc(O[C@H]2CC[C@H](NC(=O)Nc3ccc(OC(F)(F)F)cc3)CC2)cc1` [Compound A-22], at hsEH, half-maximal inhibition (IC50) was put at 3 nM.

As for `O=C(Nc1cccnc1)N1CCC(Cc2cnc3ccccc3c2)CC1` [Compound B-6, N-(pyridin-3-yl)-4-(quinolin-3-ylmethyl)piperidine-1-carboxamide], the IC50 is 4700 ± 1800 nM against hsEH and 14 nM on hFAAH [1].

Consider `CC(C)OC(=O)c1ccc(O[C@H]2CC[C@H](NC(=O)Nc3ccc(OC(F)(F)F)cc3)CC2)cc1` [Compound A-13, isopropyl 4-((trans-4-(3-(4-(trifluoromethoxy)phenyl)ureido)cyclohexyl)oxy)benzoate], for which, on hsEH, half-maximal inhibition (IC50) required 5 nM.

Compound `COC(=O)CNC(=O)c1ccc(O[C@H]2CC[C@H](NC(=O)Nc3ccc(OC(F)(F)F)cc3)CC2)cc1` [Compound A-17, methyl trans-(4-((4-(3-(4-(trifluoromethoxy)phenyl)ureido)cyclohexyl)oxy)benzoyl)glycinate] displayed a half-maximal inhibitory concentration (IC50) against hsEH of 3 nM.

Take `O=C(Nc1cccnn1)N1CCC(Cc2cccc(Oc3ccc(C(F)(F)F)cn3)c2)CC1` [Compound B-16, N-(pyridazin-3-yl)-4-(3-((5-(trifluoromethyl)pyridin-2-yl)oxy)benzyl)piperidine-1-carboxamide]: the half-inhibitory concentration (IC50) against hsEH was > 10000 nM; at hFAAH [1] it was 0.5 nM.

On hsEH, `Cc1nnc(-c2ccc(O[C@H]3CC[C@H](NC(=O)Nc4ccc(OC(F)(F)F)cc4)CC3)cc2)o1` [Compound A-25, 1-(trans-4-(4-(5-methyl-1,3,4-oxadiazol-2-yl)phenoxy)cyclohexyl)-3-(4-(trifluoromethoxy)phenyl)urea] yielded a 50% inhibitory concentration (IC50) of 4 nM.

`O=C(Nc1ccc(OC(F)(F)F)cc1)N[C@H]1CC[C@H](Oc2ccc(C(=O)NCc3ccccc3)cc2)CC1` [Compound A-27, N-benzyl-trans-4-((−4-(3-(4-(trifluoromethoxy)phenyl)ureido)cyclohexyl)oxy)benzamide] returned a half-inhibitory concentration (IC50) against hsEH of 5 nM.

At hsEH, `NC(=O)c1ccc(O[C@H]2CC[C@H](NC(=O)Nc3ccc(OC(F)(F)F)cc3)CC2)cc1` [Compound A-19, trans-4-((−4-(3-(4-(trifluoromethoxy)phenyl)ureido)cyclohexyl)oxy) benzamide] had a half-maximal inhibitory concentration (IC50) of 2 nM.

`O=C(Nc1ccc(OC(F)(F)F)cc1)N[C@H]1CC[C@H](Oc2ccc(C(=O)NCCO)cc2)CC1` [Compound A-15, N-(2-hydroxyethyl)-trans-4-((−4-(3-(4-(trifluoromethoxy)phenyl)ureido)cyclohexyl)oxy)benzamide]: inhibition at hsEH was half-maximal at 2 nM (IC50).

Turning to `O=C(Nc1ccc(C(F)(F)F)cc1F)N1CCC(Cc2cccc(Oc3ccc(C(F)(F)F)cn3)c2)CC1` [Compound B-18, N-(2-fluoro-4-(trifluoromethyl)phenyl)-4-(3-((5-(trifluoromethyl)pyridin-2-yl)oxy)benzyl)piperidine-1-carboxamide], the IC50 amounted to 9 nM against hsEH and 3 nM at hFAAH [1].

As to `Cc1noc(NC(=O)N2CCC(Cc3cccc(Oc4ccc(C(F)(F)F)cn4)c3)CC2)c1C` [Compound B-17], the values for the IC50 against hsEH and on hFAAH [1] were 500 nM and 1 nM, respectively.

Compound `O=Cc1ccc(O[C@H]2CC[C@H](NC(=O)Nc3ccc(OC(F)(F)F)cc3)CC2)cc1` [Compound A-20, trans-1-(4-(4-formyl-phenoxy)cyclohexyl)-3-(4-(trifluoromethoxy)phenyl)urea] displayed a half-inhibitory concentration (IC50) on hsEH of 4 nM.

In the case of `O=C(Nc1ccc(C(F)(F)F)cc1)N1CCC(Cc2cccc(Oc3ccc(C(F)(F)F)cn3)c2)CC1` [Compound B-13, N-(4-(trifluoromethyl)phenyl)-4-(3-((5-(trifluoromethyl)pyridin-2-yl)oxy)benzyl)piperidine-1-carboxamide], the half-maximal inhibitory concentration (IC50) was found to be 7 nM at hsEH and 8 nM at hFAAH [1].

`O=C(O)c1ccc(OC2CCN(C(=O)Nc3ccc(OC(F)(F)F)cc3)CC2)cc1` [Compound A-10, 4-((1-((4-(trifluoromethoxy)phenyl)carbamoyl)piperidin-4-yl)oxy)benzoic acid] showed an IC50 at hsEH of 8 nM.

Compound `O=C(Nc1ccccc1)N[C@H]1CC[C@H](Oc2ccc(C(=O)O)cc2)CC1` [Compound A-1, 4-((trans-4-(3-phenylureido)cyclohexyl)oxy)benzoic acid] had a half-maximal inhibitory concentration (IC50) on hsEH of 30 nM.

Take `O=C(Nc1ccc(C(F)(F)F)nc1)N1CCC(Cc2cccc(Oc3ccc(C(F)(F)F)cn3)c2)CC1` [Compound B-15, 4-(3-((5-(trifluoromethyl)pyridin-2-yl)oxy)benzyl)-N-(6-(trifluoromethyl)pyridin-3-yl)piperidine-1-carboxamide]: the values for the IC50 against hsEH and on hFAAH [1] were 70 nM and 24 nM, respectively.

Take `COc1ccc(NC(=O)N2CCC(Cc3ccc4ccccc4n3)CC2)cc1` [Compound B-7, N-(4-methoxyphenyl)-4-(quinolin-2-ylmethyl)piperidine-1-carboxamide]: on hFAAH [2], the Kd (as a rule, a measure of binding affinity in units of concentration) turned out to be 100 ± 40 nM and the “hFAAH k2” value turned out to be 0.28 ± 0.04 min⁻¹.

On to `O=C(Nc1ccc(OC(F)(F)F)cc1)N1CCC(Cc2cccc(Oc3ccc(C(F)(F)F)cn3)c2)CC1` [Compound B-11, N-(4-(trifluoromethoxy)phenyl)-4-(3-((5-(trifluoromethyl)pyridin-2-yl)oxy)benzyl)piperidine-1-carboxamide], for which the “hsEH IC50” value at hsEH is “single digit”. For the same compound, the “hFAAH IC50” value at hFAAH [1] is “single digit”.

Take `O=C(Nc1ccc(OC(F)(F)F)cc1)N1CCC(Cc2cnc3ccccc3c2)CC1` [Compound B-4, 4-(quinolin-3-ylmethyl)-N-(4-(trifluoromethoxy)phenyl)piperidine-1-carboxamide]: at hsEH, 8 ± 1 nM corresponded to half-maximal inhibition (IC50) and the “increase of activity/potency towards sEH” value is 80 fold. Also, the IC50 at hFAAH [1] was determined as 390 nM. The “decrease of activity/potency towards FAAH” value on hFAAH [1] (relative to PF-750) came to 20.5 fold.

For the compound `O=C(Nc1ccc(Cl)cc1)N1CCC(Cc2cnc3ccccc3c2)CC1` [Compound B-2, N-(4-chlorophenyl)-4-(quinolin-3-ylmethyl)piperidine-1-carboxamide], on hsEH, the midpoint of inhibition, the IC50, lay at 20 ± 4 nM and the “increase of activity/potency towards sEH” value was determined as 30 fold. For the same compound, on hFAAH [1], the 50% inhibitory concentration (IC50) amounted to 62 nM. Moreover, the “decrease of activity/potency towards FAAH” value at hFAAH [1] (relative to PF-750) came to 3 fold.

Turning to `O=C(Nc1ccc(OC(F)(F)F)cc1)N[C@H]1CC[C@H](Oc2ccc(CO)cc2)CC1` [Compound A-24, 1-(trans-4-(4-(hydroxymethyl)phenoxy)cyclohexyl)-3-(4-(trifluoromethoxy)phenyl)urea], the IC50 against hsEH is 3 nM.

Compound `COC(=O)c1ccc(O[C@H]2CC[C@H](NC(=O)Nc3ccc(OC(F)(F)F)cc3)CC2)cc1` [Compound A-12, methyl 4-((trans-4-(3-(4-(trifluoromethoxy)phenyl)ureido)cyclohexyl)oxy) benzoate] had an IC50 on hsEH of 7 nM.

Take `O=C(Nc1ccc(C(F)(F)F)cn1)N1CCC(Cc2cccc(Oc3ccc(C(F)(F)F)cn3)c2)CC1` [Compound B-14, N-(5-(trifluoromethyl)pyridin-2-yl)-4-(3-((5-(trifluoromethyl)pyridin-2-yl)oxy)benzyl)piperidine-1-carboxamide]: the concentration for half-maximal inhibition (IC50) against hsEH came to 60 nM; at hFAAH [1], 3 nM.

Compound `N#Cc1ccc(O[C@H]2CC[C@H](NC(=O)Nc3ccc(OC(F)(F)F)cc3)CC2)cc1` [Compound A-11] gave a half-inhibitory concentration (IC50) against hsEH of 5 nM.

Turning to `O=C(Nc1ccc(F)cc1)N1CCC(Cc2cnc3ccccc3c2)CC1` [Compound B-1, N-(4-fluorophenyl)-4-(quinolin-3-ylmethyl)piperidine-1-carboxamide], at hsEH, it took 94 ± 42 nM to reach half-maximal inhibition (IC50) and the “increase of activity/potency towards sEH” value is 7 fold. Further, on hFAAH [1], the concentration for half-maximal inhibition (IC50) was found to be 88 nM. In addition, on hFAAH [1] (relative to PF-750), the “decrease of activity/potency towards FAAH” value is 4 fold.

For the compound `O=C(NCCCCOc1ccc(C(=O)O)cc1)Nc1ccc(OC(F)(F)F)cc1` [Compound A-6, 4-(4-(3-(4-(trifluoromethoxy)phenyl)ureido)butoxy)benzoic acid], at hsEH, the midpoint of inhibition, the IC50, lay at 15 nM.

Turning to `O=C(Nc1ccc(F)cc1)N[C@H]1CC[C@H](Oc2ccc(C(=O)O)cc2)CC1` [Compound A-2, 4-((trans-4-(3-(4-fluorophenyl)ureido)cyclohexyl)oxy)benzoic acid], the IC50 on hsEH turned out to be 18 nM.

`O=C(O)CNC(=O)c1ccc(O[C@H]2CC[C@H](NC(=O)Nc3ccc(OC(F)(F)F)cc3)CC2)cc1` [Compound A-16] registered a 50% inhibitory concentration (IC50) against hsEH of 2 nM.

For the origin of these results see patent publication US11873288B2, “Inhibitors for soluble epoxide hydrolase (sEH) and fatty acid amide hydrolase (FAAH)” (The Regents of the University of California, priority 2016, dated 2024).
